In ChEMBL document CHEMBL4699438, “Toward the discovery and development of effective modulators of α-synuclein amyloid aggregation” (Eur J Med Chem, 2019):
pIC50: −log10 of the molar value.

Target: T1, Alpha-synuclein (Homo sapiens, UniProt P37840)
Experiment: Inhibition of alpha-synuclein aggregation (unknown origin) incubated for 8 days by thioflavin S based fluorescence assay

Compound | pIC50
C[C@]12CCC(=O)C=C1CC[C@@H]1[C@@H]2CC[C@]2(C)C(=O)CC[C@@H]12 [ANDROSTENEDIONE] | 4.07

Target: T1, Alpha-synuclein
Experiment: Inhibition of human alpha-synuclein filament formation expressed in Escherichia coli BL21(DE3) cells incubated for 72 hrs by thioflavin S based fluorescence assay

Compound | pIC50
O=C(O[C@@H]1Cc2c(O)cc(O)cc2O[C@H]1c1ccc(O)c(O)c1)c1cc(O)c(O)c(O)c1 [(-)-CATECHINGALLATE] | 4.67
Oc1cc(O)c2c(c1)O[C@H](c1ccc(O)c(O)c1)[C@H](O)C2 [(-)-EPICATECHIN] | 4.52
O=c1cc(-c2ccccc2)oc2cc(O)c(O)c(O)c12 [BAICALEIN] | 5.09
Oc1cc(O)c2cc(O)c(-c3ccc(O)c(O)c3)[o+]c2c1 [CYANIDIN CHLORIDE] | 4.99
Oc1cc(O)c2cc(O)c(-c3cc(O)c(O)c(O)c3)[o+]c2c1 [DELPHINIDIN CHLORIDE] | 5.19
Oc1cc(O)c2c(c1)O[C@H](c1cc(O)c(O)c(O)c1)[C@H](O)C2 [EPIGALLOCATECHIN] | 4.97
O=C(O[C@@H]1Cc2c(O)cc(O)cc2O[C@H]1c1cc(O)c(O)c(O)c1)c1cc(O)c(O)c(O)c1 [GALLOCATECHIN GALLATE] | 5.44
Oc1cc(O)c2c(c1)O[C@H](c1cc(O)c(O)c(O)c1)[C@@H](O)C2 [GALLOCATECHIN] | 5.05
Cc1cc(O)c2c(=O)c3c(O)cc(O)c4c5c(O)cc(O)c6c(=O)c7c(O)cc(C)c8c1c2c(c34)c(c78)c65 [HYPERICIN] | 5.12
O=c1cc(-c2ccc(O)c(O)c2)oc2cc(O)cc(O)c12 [LUTEOLIN] | 4.55
O=c1c(O)c(-c2cc(O)c(O)c(O)c2)oc2cc(O)cc(O)c12 [MYRICETIN] | 4.88
Oc1cc(O)c2c(c1)O[C@H](c1ccc(O)c(O)c1)[C@H](O)[C@H]2c1c(O)cc(O)c2c1O[C@H](c1ccc(O)c(O)c1)[C@@H](O)C2 [PROCYANIDIN B1] | 5.14
Oc1cc(O)c2c(c1)O[C@H](c1ccc(O)c(O)c1)[C@H](O)[C@H]2c1c(O)cc(O)c2c1O[C@H](c1ccc(O)c(O)c1)[C@H](O)C2 [PROCYANIDIN B2] | 5.37
O=c1c(O)cccc2cc(O)c(O)c(O)c12 [PURPUROGALLIN] | 4.89
O=c1c(O)c(-c2ccc(O)c(O)c2)oc2cc(O)cc(O)c12 [QUERCETIN] | 4.70
CO[C@H]1/C=C/O[C@@]2(C)Oc3c(C)c(O)c4c(O)c(c(/C=N/N5CCN(C)CC5)c(O)c4c3C2=O)NC(=O)/C(C)=C\C=C\[C@H](C)[C@H](O)[C@@H](C)[C@@H](O)[C@@H](C)[C@H](OC(C)=O)[C@@H]1C [RIFAMPIN] | 4.34

Target: T1, Alpha-synuclein
Experiment: Inhibition of alpha-synuclein fibril formation (unknown origin) incubated for 24 hrs to 7 days by thioflavin S based fluorescence assay

Compound | pIC50
Oc1cc(O)c2c(c1)O[C@H](c1ccc(O)c(O)c1)[C@H](O)C2 [(-)-EPICATECHIN] | 6.10
COc1cc(/C=C/C(=O)O)ccc1O [FERULATE] | 6.12
O=c1c(O)c(-c2cc(O)c(O)c(O)c2)oc2cc(O)cc(O)c12 [MYRICETIN] | 6.66
CO[C@H]1/C=C/O[C@@]2(C)Oc3c(C)c(O)c4c(O)c(c(/C=N/N5CCN(C)CC5)c(O)c4c3C2=O)NC(=O)/C(C)=C\C=C\[C@H](C)[C@H](O)[C@@H](C)[C@@H](O)[C@@H](C)[C@H](OC(C)=O)[C@@H]1C [RIFAMPIN] | 5.15
O=C(/C=C/c1ccc(O)c(O)c1)O[C@H](Cc1ccc(O)c(O)c1)C(=O)O [ROSMARINIC ACID] | 6.68
CN(C)[C@@H]1C(O)=C(C(N)=O)C(=O)[C@@]2(O)C(O)=C3C(=O)c4c(O)cccc4[C@@](C)(O)[C@H]3C[C@@H]12 [TETRACYCLINE] | 5.22

Target: T1, Alpha-synuclein
Experiment: Inhibition of human alpha-synuclein aggregation expressed in Escherichia coli BL21(DE3) cells assessed as percent of un-inhibition measured at 16 hrs by thioflavin T based fluorescence assay relative to control
Parameters: concentration or dose not given beside the values

Compound | Remaining aggregation (% of control) [%]
CC[C@H](C)[C@H](NC(=O)[C@H](CO)NC(=O)[C@H](Cc1c[nH]c2ccccc12)NC(=O)[C@@H](NC(=O)[C@H](CC(C)C)NC(=O)[C@H](CCCCN)NC(=O)[C@@H](N)CCCCN)[C@@H](C)O)C(=O)N1CCC[C@@H]1C(=O)NCC(=O)N[C@@H](CCCCN)C(=O)N[C@@H](CCCCN)C(=O)N[C@@H](Cc1c[nH]c2ccccc12)C(=O)N[C@H](C(=O)N[C@H](C(=O)N[C@@H](CO)C(=O)N[C@@H](C)C(=O)O)C(C)C)[C@@H](C)O | 20
CC[C@H](C)[C@H](NC(=O)[C@H](Cc1ccc(O)cc1)NC(=O)[C@H](CCCCN)NC(=O)CNC(=O)[C@H]1CCCN1C(=O)[C@@H](NC(=O)[C@H](Cc1ccc(O)cc1)NC(=O)[C@@H](NC(=O)[C@@H](NC(=O)[C@H](CC(C)C)NC(=O)[C@H](CCCCN)NC(=O)[C@@H](N)CCCCN)[C@@H](C)O)C(C)C)[C@@H](C)CC)C(=O)N[C@H](C(=O)N[C@H](C(=O)N[C@@H](CO)C(=O)N[C@@H](C)C(=O)O)C(C)C)[C@@H](C)O | 18
H-KKLTVWI-OH | 61
H-KTWNAAAGKWTE-OH | 81
